The values below come from patent EP3888661A1, “COMPOSITIONS COMPRISING 2 -FUCOSYLLACTOSE TO PREVENT VIRAL INFECTIONS” (FrieslandCampina Nederland B.V., priority 2020, dated 2021).

In series [1] the test system is anaerobic microbiota from human origin. Put plainly: TIM-2 in vitro fermentation model of the human colon, SCFA/acetate production. The source says:
The in vitro fermentation studies were done using the TIM-2 model. This is a validated, dynamic, computer-controlled model that simulates the human colon, mimicking body temperature, lumen pH, absorption of water and microbial metabolites through a semipermeable membrane inside the model, mixing and transporting the intestinal contents with peristaltic movements, using an anaerobic microbiota from human origin, it corresponds basically to the model as described in Minekus, M., etal. Appl. Microbiol. Biotechnol. 1999 53, 108-114. doi: 10.1007/ s002530051622 and Kortman et al., Frontiers in Microbiology 2016, 6, 1481. Characteristics of the movements of the contents in the TIM-2 system was simulated using an increase of the pH and peristaltic movements of the contents in the system using peristaltic pumps as described in Minekus, M (1998. Development and validation of a dynamic model of the gastrointestinal tract. PhD thesis, Delft University of Technology, The Netherlands).
SCFA analysis was performed at Brightlabs B.V., Venlo, The Netherlands), according to (Sáyago-Ayerdi SG, et al. Food Research International, E-pub date 13 December 2017; Sayago Ayerdi et al Food Research International 118 (2019) 89-95). […]
Samples (1 mL) were taken for Short Chain Fatty Acid (SCFA) analysis after 1, 2, 4, 6, 8 and 24 h after test product insertion; cumulative absolute amounts of SCFA were determined. […]

For series [2] the following is noted: cited from earlier work.

With `C[C@@H]1O[C@@H](O[C@H]2[C@H](O[C@H]3[C@H](O)[C@@H](O)C(O)O[C@@H]3CO)O[C@H](CO)[C@H](O)[C@@H]2O)[C@@H](O)[C@H](O)[C@@H]1O` (stereo partly drawn) [2'-FL, 2'-Fucosyllactose], the acetate production in series [1] (7.5 gram test product as single shot, cumulative acetate produced between 8 and 24 hours after insertion, representing the distal colon, pooled fecal microbiota of 20 healthy subjects) is listed as 17 mmol; in series [1] (fecal microbiota samples of lean and of obese subjects in the TIM-2 model system), “An increase in the acetate production was observed”. For the same compound, the “daily dosage tested as safe” value in series [2] is recorded as 20 g.
